Test results as given in US8221745B2 (Velico Medical, Inc., priority 2004, dated 2012).

How the values were obtained:
[1] = tested on: differentiated monocytic cell line THP-1; test: In vitro phagocytic assay: ingestion of chilled or room temperature human platelets by THP-1 cells; assay type: cell-based; settings: for inhibitory effect on chilled platelet phagocytosis (in words): phagocytes incubated in monosaccharide solutions at various concentrations; for inhibitory effect on RT platelet phagocytosis (in words): room temperature platelets
Description: CR3 expression was monitored by flow cytometry using a PE-conjugated anti-human CD11b/Mac-1 mAb. Undifferentiated or differentiated THP-1 cells (2×10^6/ml) were plated onto 24-well plates and allowed to adhere for 45 minutes at 37° C. The adherent undifferentiated or differentiated macrophages were activated by the addition of 15 ng/ml PMA for 15 min. CM-range-labeled, chilled or room temperature platelets (10^7/well), previously subjected to different treatments were added to the undifferentiated or differentiated phagocytes in Ca^2+- and Mg^2+-containing HBSS and incubated for 30 min at 37° C. Following the incubation period, the phagocyte monolayer was washed with HBSS for 3 times, and adherent platelets were removed by treatment with 0.05% trypsin/0.53 mM EDTA in HBSS at 37° C. for 5 min followed by 5 mM EDTA at 4° C. to detach the macrophages for flow cytometric analysis of adhesion or ingestion of platelets (Brown et al., 2000). […] CM-Orange-labeled platelets incubated with macrophages were resolved from the phagocytes according to their forward and side scatter properties. The macrophages were gated, 10,000 events acquired for each sample, and data analyzed with CELLQuest software (Becton Dickenson).
To analyze the effects of monosaccharides on platelet phagocytosis, phagocytes (differentiated monocytic cell line THP-1) were incubated in monosaccharide solutions at various concentrations, and the chilled or room temperature platelets were added. Values in the Figures are means±SD of 3-5 experiments comparing percentages of orange-positive monocytes containing ingested platelets incubated with RT or chilled platelets).

chilled human platelets = test: FITC-WGA / S-WGA lectin binding to platelets by flow cytometry; assay type: cell-based; settings: chilled or room temperature human platelets; control nucleotides
Description: We then investigated whether wheat germ agglutinin (WGA), a lectin with specificity towards the terminal sugar (GlcNAc), binds more effectively to chilled platelets than to room temperature platelets. Washed, chilled or room temperature platelets were incubated with 2 μg/ml of FITC coupled WGA or FITC coupled succinyl-WGA for 30 min at room temperature and analyzed by flow cytometry.
To analyze whether removal of GlcNAc residues reduces the binding of WGA to the platelet surface, chilled and room temperature washed human platelets were treated with 100 U/ml β-Hex for 30 min at 37° C.

human platelets [2] = test: RCA I lectin binding to platelets by flow cytometry; assay type: cell-based; settings: chilled or room temperature human platelets; control nucleotides
Murine platelets = test: Immunolabeling and flow cytometry of chilled versus room temperature platelets (murine); assay type: cell-based; settings: mean±SD, n=3−4
Description: (§1) Washed murine or human platelets (2×10^6) were analyzed for surface expression of CD62P, CD61, or surface bound IgM and IgG after chilling or room temperature storage by staining with fluorophore-conjugated Abs (5 μg/ml) for 10 min at 37° C. Phosphatidylserine exposure by chilled or room temperature platelets was determined by resuspending 5 μl of platelets in 400 μl of HBSS containing 10 mM Ca^2+ with 10 μg/ml of FITC-conjugated annexin-V. As a positive control for PS exposure, platelet suspensions were stimulated with 1 μM A23187. Fibrinogen binding was determined by the addition of Oregon Green-fibrinogen for 20 min at room temperature. All platelet samples were analyzed immediately by flow cytometry. Platelets were gated by forward and side scatter characteristics.
(§2) The binding of fluorescently labeled antibodies or ligands against various receptors on chilled-rewarmed or room temperature human and murine platelets was measured by flow cytometry. The data are expressed as the ratio between the mean fluorophore bound to the surface of chilled versus room temperature platelets (mean±SD, n=3−4).

human platelets [3] = test: Immunolabeling and flow cytometry of chilled versus room temperature platelets (human); assay type: cell-based; settings: mean±SD, n=3−4
Description: as §1, §2

[4] = mice lacking 2,3Sialyltransferase IV; cited from earlier work
[5] = tested on: platelet membrane glycoproteins; test: Incorporation of 14C-labeled sugars into endogenous platelet glycoproteins (SDS-PAGE, autoradiography); assay type: biochemical, human; settings: intact non-lysed platelets
Description: Transfer of sialic acids to endogenous glycoproteins by platelet sialyltransferase activity was tested in two ways. […] Intact platelets suspended in buffer (140 mM NaCl, 3 mM KCl, 0.5 mM MgCl2, 5 mM NaHCO3, 10 mM Hepes, pH 7.4) were used to assess the capacity of surface exposed sialyltransferase activity to transfer to platelet membrane glycoproteins. […] Thus, it was possible to use three different glycan modification strategies: addition of 1) UDP-[^14C]-galactose, 2) UDP-[^14C]-galactose and CMP-[^14C]-sialic acid, and 3) CMP-[^14C]-sialic acid alone. The incorporation of radioactive sugar nucleotides were monitored by SDS-PAGE chromatography followed by autoradiography.
The incorporation of radioactive carbohydrate sialic acid in endogenous platelet acceptor proteins was evaluated by incubating either detergent lysed platelets or non-lysed platelets with CMP-[^14C]-sialic. The incorporation ^14C-sialic acid was monitored by SDS-PAGE chromatography of the glycosylation mixture followed by autoradiography. Briefly, human apheresis platelets were washed and resuspended in resuspension buffer (40 mM NaCl, 3 mM KCl, 0.5 mM MgCl2, 5 mM NaHCO3, 10 mM Hepes, pH 7.4) and split in two fractions. One fraction was incubated with addition of CMP-[^14C]-sialic acid at 37° C. for 60 minutes. […]

O=C[C@H](O)[C@@H](O)[C@@H](O)[C@H](O)CO [D-(+)-galactose]
% inhibition phagocytosis ([1]; chilled platelets, monosaccharide 100 mM): did not significantly inhibit

O=C[C@@H](O)[C@@H](O)[C@H](O)[C@H](O)CO [D-(+)-mannose]
inhibitory effect on chilled platelet phagocytosis (in words) ([1]; chilled platelets): no inhibitory effect | inhibitory effect on RT platelet phagocytosis (in words) [1]: no inhibitory effect

CC(=O)N[C@H]1C(O)O[C@H](CO)[C@@H](O)[C@@H]1O (stereo partly drawn) [GlcNac, N-acetyl-D-glucosamine]
inhibition of chilled platelet phagocytosis (in words) ([1]; 25 to 200 mM): significantly inhibited

CO[C@H]1O[C@H](CO)[C@@H](O)[C@H](O)[C@H]1O [Methyl-α-D-glucopyranoside]
inhibitory effect on chilled platelet phagocytosis (in words) ([1]; chilled platelets): did not have an inhibitory effect

CO[C@H]1O[C@H](CO)[C@@H](O)[C@H](O)[C@@H]1O [Methyl-α-D-mannopyranoside]
inhibitory effect on chilled platelet phagocytosis (in words) ([1]; chilled platelets): no inhibitory effect | inhibitory effect on RT platelet phagocytosis (in words) [1]: no inhibitory effect

COC1OC(CO)C(O)C(O)C1O [Methyl-β-D-gludopyranoside]
inhibitory effect on chilled platelet phagocytosis (in words) ([1]; chilled platelets): inhibited phagocytosis in a dose-dependent manner

CO[C@@H]1O[C@H](CO)[C@@H](O)[C@H](O)[C@@H]1O [Methyl-β-D-mannopyranoside]
inhibitory effect on chilled platelet phagocytosis (in words) ([1]; chilled platelets): no inhibitory effect | inhibitory effect on RT platelet phagocytosis (in words) [1]: no inhibitory effect

O=c1ccn([C@@H]2O[C@H](COP(=O)(O)OP(=O)(O)O)[C@@H](O)[C@H]2O)c(=O)[nH]1 [UDP]
effect on S-WGA binding (chilled human platelets): no effect | effect on RCA I binding (human platelets [2]): no effect

CC(=O)N[C@@H]1[C@@H](O)[C@H](O)[C@@H](CO)O[C@H]1O [β-GlcNac]
inhibition of the phagocytosis of chilled platelets ([1]; 10 μM): 80% | inhibitory effect on chilled platelet phagocytosis (in words) ([1]; chilled platelets): strongly inhibited

annexin V: FITC-conjugated annexin-V, ligand for phosphatidylserine exposure
Binding ratio 4° C.:22° C. (Murine platelets): 1.04 ± 0.02 | Binding ratio 4° C.:22° C. (human platelets [3]): 0.95 ± 0.09

asialofetuin
platelet count [4]: corrects the platelet count

cytidine monophospho-N-acetylneuraminic acid [CMP-sialic acid]
incorporation of radioactive sugar into platelet membrane glycoproteins [5]: high level of incorporation

fibrinogen
Binding ratio 4° C.:22° C. (Murine platelets): 1.06 ± 0.06 | Binding ratio 4° C.:22° C. (human platelets [3]): 1.05 ± 0.10
